Test system: E. coli K-12
Experiment: Minimal Inhibitory Concentration (MIC) growth test of EuCl3
Type: cell-based
Excerpt: The inventors were first interested in evaluating Eu toxicity in their working conditions. To this purpose, they have submitted E. coli to a serial of growing tests called Minimal Inhibitory Concentration (MIC). This test aimed to determine the lowest concentration able to inhibit the bacteria growth. It consisted in growing bacteria in presence of several concentrations of the tested compound.
Serial dilution series of the substance to be tested were inoculated with bacteria at 0.3 D.O550 nm diluted 1/16000 in culture medium. D.O550 nm was followed until stationary phase. Minimal concentration of the test substance preventing stationary phase was considered as MIC.
For the Eu MIC determination, the inventors have tested EuCl3 concentrations between 100 μM and 2 mM. E. coli K-12 and pBAD arabinose inducible MTtag transformed E. coli K-12 were tested. E. coli K12 were transformed by electroporation with the pBAD plasmid down control of BAD promoter (Guzman, L. M., et al. J Bacteriol 177, 4121-4130 (1995); Khlebnikov, A. & Keasling, J. D. Biotechnol. Prog. 18, 672-674 (2002)). Bacteria pre-cultures were produced at 37° C. in Luria-Bertani (LB) medium with added ampicillin ([…]) in transformed strain. The pre-cultures were used to inoculate tubes of minimum media M9 (with or without ampicillin) until exponential phase D.O550 nm≈0.3. Then, 1/16000 dilutions were prepared in M9 medium (with or without ampicillin). 1 μl of the diluted bacteria were added to 200 μl of M9-EuCl3 at different concentrations in 96 wells plates. Bacterial grow was followed until stationary phase. The D.O550 nm was measured on a Tecan Infinite 200 PRO.

[Cl][Eu]([Cl])[Cl] [EuCl3]
Effect on bacterial growth (E. coli K-12 MG1655 growth curve, several concentrations of Europium (FIG. 1)): doesn't have a dramatic negative effect on bacterial growth | MIC: EuCl3 concentration until which bacteria is viable (E. coli K-12 and MTtag transformed E. coli K-12, M9 medium, 100 μM to 2 mM tested, repeated 10 times): higher than 2 mM | Precipitation above maximal concentration tested (M9 medium, maximal concentration tested 2 mM): precipitates at higher concentrations | EuCl3 concentration after which growing slow down is observed (does not impact bacterial viability): > 1 mM | Toxicity for E. coli K-12 (transformed or not): not toxic

— patent US20140322744A1, “CLONABLE TAG FOR CORRELATIVE LIGHT AND ELECTRON MICROSCOPY LABELING” (INSTITUT CURIE, priority 2011, published 2014)
